Laboratory results from patent publication US20240067657A1, “AMIDO-SUBSTITUTED PYRIDYL COMPOUNDS AND METHODS OF USE THEREOF FOR THE TREATMENT OF HERPESVIRUSES” (Merck Sharp & Dohme LLC, priority 2020, published 2024).
Where two headings read alike, the source gives them in different places.

What was measured:
[1] = target: T1, Human cytomegalovirus DNA polymerase (Human cytomegalovirus, UniProt P08546); assay: HCMV polymerase assay (AlphaLISA, IC50); assay type: biochemical; conditions: polymerase assay of Example 190
T1 construct: made in house; host or cells: SF21 insect cells (baculovirus vector)
T1 sequence (P08546 whole entry): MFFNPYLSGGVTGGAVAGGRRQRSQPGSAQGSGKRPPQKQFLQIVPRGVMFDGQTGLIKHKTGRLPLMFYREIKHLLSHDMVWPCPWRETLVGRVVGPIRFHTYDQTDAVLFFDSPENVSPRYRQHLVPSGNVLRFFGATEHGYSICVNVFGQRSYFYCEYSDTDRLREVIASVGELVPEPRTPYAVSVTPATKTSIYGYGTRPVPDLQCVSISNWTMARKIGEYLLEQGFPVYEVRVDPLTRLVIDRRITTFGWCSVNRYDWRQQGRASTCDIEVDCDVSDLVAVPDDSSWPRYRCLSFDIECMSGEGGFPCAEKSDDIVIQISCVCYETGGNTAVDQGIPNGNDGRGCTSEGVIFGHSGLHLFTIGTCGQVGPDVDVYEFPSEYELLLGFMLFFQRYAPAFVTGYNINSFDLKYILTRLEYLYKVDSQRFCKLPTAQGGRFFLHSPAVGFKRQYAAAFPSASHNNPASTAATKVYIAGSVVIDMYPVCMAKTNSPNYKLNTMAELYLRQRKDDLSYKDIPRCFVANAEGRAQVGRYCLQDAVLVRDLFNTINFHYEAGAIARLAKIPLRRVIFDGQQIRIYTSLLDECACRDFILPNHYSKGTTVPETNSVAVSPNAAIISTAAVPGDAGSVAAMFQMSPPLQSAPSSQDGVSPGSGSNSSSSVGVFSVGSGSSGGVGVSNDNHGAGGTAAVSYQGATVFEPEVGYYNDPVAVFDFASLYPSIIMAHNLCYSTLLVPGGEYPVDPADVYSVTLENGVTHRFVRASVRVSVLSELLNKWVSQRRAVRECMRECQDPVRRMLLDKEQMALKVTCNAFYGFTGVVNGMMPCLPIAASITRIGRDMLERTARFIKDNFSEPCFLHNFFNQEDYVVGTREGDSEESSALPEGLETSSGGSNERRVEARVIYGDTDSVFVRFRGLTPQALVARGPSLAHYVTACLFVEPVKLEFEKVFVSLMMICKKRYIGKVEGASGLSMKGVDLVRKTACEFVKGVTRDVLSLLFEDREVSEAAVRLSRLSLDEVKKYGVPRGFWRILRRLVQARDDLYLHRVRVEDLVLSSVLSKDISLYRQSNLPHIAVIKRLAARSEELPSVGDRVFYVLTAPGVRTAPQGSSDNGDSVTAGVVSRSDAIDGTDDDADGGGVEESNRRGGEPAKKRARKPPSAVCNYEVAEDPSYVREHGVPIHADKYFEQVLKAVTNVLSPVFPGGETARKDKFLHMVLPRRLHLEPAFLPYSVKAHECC
Description: (§1) Human cytomegalovirus and varicella zoster virus DNA polymerases were expressed via baculovirus vector in SF21 cells and purified. Heterodimeric nucleic acid substrate used in the herpesvirus polymerase reactions was generated by annealing a 59-mer template to a 17-mer digoxigenin-labeled primer. Polymerase (HCMV final concentration of 0.2 nM; VZV final concentration of 0.4 nM) was combined with an inhibitor compound or DMSO in assay buffer (10 mM HEPES, pH 7.5, 25 mM KCl, 25 mM NaCl, 5 mM MgCl2, 5% glycerol, 0.67 mg/ml bovine serum albuminutes, and 1 mM tris(2-carboxyethyl)phosphine), and this mixture was pre-incubated for 30 minutes at room temperature in 384-well microtiter plates. The polymerization reaction was initiated by the addition of template/primer substrate (final concentration: 1.6 nM), and dNTPs (final concentration: 24 nM dCTP, 24 nMdGTP, 16 nM dATP, 16 nM dTTP, and 0.8 nM biotin-dUTP). After 60 minutes incubation at 37° C., reactions were terminated with quench buffer (25 mM HEPES pH 7.5, 100 mM NaCl, 0.25% Tween-20, 12 mM EDTA, and 1 mg/ml bovine serum albumin). Incorporation of biotinylated UTP was detected with 2.5-5 ug/ml anti-DIG AlphaLISA acceptor beads and 5-10 ug/ml streptavidin AlphaLISA donor beads (Perkin Elmer). Compound effects were normalized to the window defined by the controls (DMSO only and pre-quenched wells), and were fit using a 4-parameter algorithm to report an IC50.

[2] = target: T2, varicella zoster virus DNA polymerase (Varicella-zoster virus, UniProt P09252); assay: VZV polymerase assay (AlphaLISA, IC50); assay type: biochemical; conditions: polymerase assay of Example 190
T2 construct: made in house; host or cells: SF21 insect cells (baculovirus vector)
T2 sequence (P09252 whole entry): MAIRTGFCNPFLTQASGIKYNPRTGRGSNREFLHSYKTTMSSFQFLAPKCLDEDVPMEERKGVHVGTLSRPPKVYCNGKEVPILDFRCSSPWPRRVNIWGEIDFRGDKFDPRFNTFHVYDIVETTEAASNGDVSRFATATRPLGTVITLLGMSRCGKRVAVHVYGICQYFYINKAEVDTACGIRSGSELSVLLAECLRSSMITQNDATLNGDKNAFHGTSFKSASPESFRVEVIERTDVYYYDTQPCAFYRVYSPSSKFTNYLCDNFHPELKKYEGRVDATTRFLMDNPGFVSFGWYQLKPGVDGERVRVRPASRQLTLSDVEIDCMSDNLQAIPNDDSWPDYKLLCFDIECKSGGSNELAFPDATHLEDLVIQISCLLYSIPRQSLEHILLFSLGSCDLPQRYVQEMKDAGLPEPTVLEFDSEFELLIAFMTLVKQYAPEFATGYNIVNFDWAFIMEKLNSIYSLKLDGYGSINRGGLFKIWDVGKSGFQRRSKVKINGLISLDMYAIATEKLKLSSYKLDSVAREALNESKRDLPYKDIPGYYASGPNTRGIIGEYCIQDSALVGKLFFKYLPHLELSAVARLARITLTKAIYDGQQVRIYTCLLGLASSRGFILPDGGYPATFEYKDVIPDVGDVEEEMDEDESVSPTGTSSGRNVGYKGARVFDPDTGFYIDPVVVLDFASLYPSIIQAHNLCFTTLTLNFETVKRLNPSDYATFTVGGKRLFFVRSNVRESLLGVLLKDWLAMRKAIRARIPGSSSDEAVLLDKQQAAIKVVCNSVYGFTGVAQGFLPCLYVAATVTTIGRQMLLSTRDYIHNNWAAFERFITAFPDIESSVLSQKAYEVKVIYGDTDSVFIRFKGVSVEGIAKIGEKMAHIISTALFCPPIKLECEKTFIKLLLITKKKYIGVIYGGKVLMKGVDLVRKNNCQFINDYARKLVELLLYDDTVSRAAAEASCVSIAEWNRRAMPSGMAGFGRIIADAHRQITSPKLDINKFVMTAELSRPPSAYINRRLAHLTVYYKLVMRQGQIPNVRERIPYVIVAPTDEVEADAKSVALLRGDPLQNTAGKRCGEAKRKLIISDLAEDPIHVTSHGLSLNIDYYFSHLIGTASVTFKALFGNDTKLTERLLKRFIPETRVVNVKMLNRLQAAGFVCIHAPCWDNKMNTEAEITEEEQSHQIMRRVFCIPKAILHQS
Description: as §1

[3] = test system: HCMV Strain AD169 in MRC-5 cells; assay: Viral qPCR assay HCMV (V0/V1, V2/V3), EC50; assay type: cell-based; conditions: Human betaherpesvirus 5, AD169, MRC5, viral qPCR assay of Example 191; read-out: HCMV Cell (EC50)
Description: (§2) Viral qPCR Assays (V0/V1)
(§3) MRC5 cells, Vero cells, and MeWo cells were obtained from ATCC and were maintained at 37° C./5% CO2/90% relative humidity in Minimal Essential Medium with 10% fetal bovine serum, […] L-glutamine, 100 units/ml penicillin and 100 ug/ml streptomycin. Assay plates were prepared by dispensing compounds dissolved in DMSO into wells of 384 well collagen-coated plates using an ECHO acoustic dispenser. Each compound was tested in a 10-point, serial 3-fold dilution. Controls included uninfected cells and infected cells treated only with DMSO. Assays were initiated by mixing selected cells, in suspension, with virus, and dispensing 50 μl/well infected cells to pre-plated compounds. Plates were incubated at 37° C./5% CO2/90% relative humidity for ˜72 hrs to permit genomic replication, and infected cells were lysed by the addition of an equal volume of lysis buffer (10 mM Tris-HCl, pH8, 50 mM KCl, 2 mM MgCl2, 0.45% NP-40, 0.45% Tween-20, and 100 μg/ml proteinase K). An aliquot of the lysate was transferred to a 384-well PCR plate and incubated at 56° C. for 1 hour and then at 95° C. for 10 min. Levels of a viral gene and of the cellular control, PPIA (Thermo Fisher Assay ID=Hs04194521_s1), were measured in separate 10 μL qPCR assays using TaqMan® Gene Expression Master Mix (Applied Biosystems), and an 7900HT Fast Real-Time PCR System with 384-Well Block Module. 7-point, serial 10-fold dilutions of a plasmid standard were run on each plate to generate a standard curve, and genome copies numbers were calculated by plotting experimental Ct onto linear regression of the standard curve. Viral genome copy numbers were normalized by cellular control copy number, and compound effects were normalized to the window defined by the controls. Calculated % effects were fit using a 4-parameter algorithm, and EC50 was reported.
(§4) Viral qPCR Assays (V2/V3)
as §3, with “gene” for “gene and of the cellular control, PPIA (Thermo Fisher Assay ID=Hs04194521_s1),”, “in” for “in separate”, “Compound effects on viral” for “Viral”, “number” for “numbers were normalized by cellular control copy number, and compound effects”, “reported. • HCMV: Strain AD169 Street was assayed in MRC-5 cells and was used at 0.05-0.1 pfu/cell. The assays were performed in either growth media or in the same media with 50% fetal bovine serum. Primer-probe set was Thermo Fisher Assay ID=AIFATFK. • VZV: Strain Street was maintained as an infected cell stock in MRC-5 cells. It was assayed in MeWo or MRC5 cells and was used at 0.04-0.1 pfu/cell. […]” for “reported.”

[4] = test system: HSV-1 Strain F in Vero or MRC5 cells; assay: Viral qPCR assay HSV-1 (V0/V1, V2/V3), EC50; assay type: cell-based; conditions: 10%
Description: as §2, §3, §4
as §3, with “gene” for “gene and of the cellular control, PPIA (Thermo Fisher Assay ID=Hs04194521_s1),”, “in” for “in separate”, “Compound effects on viral” for “Viral”, “number” for “numbers were normalized by cellular control copy number, and compound effects”, “reported. • HCMV: Strain AD169 Street was assayed in MRC-5 cells and was used at 0.05-0.1 pfu/cell. The assays were performed in either growth media or in the same media with 50% fetal bovine serum. Primer-probe set was Thermo Fisher Assay ID=AIFATFK. • VZV: Strain Street was maintained as an infected cell stock in MRC-5 cells. It was assayed in MeWo or MRC5 cells and was used at 0.04-0.1 pfu/cell. […]” for “reported.”

[5] = test system: VZV in MeWo or MRC5 cells; assay: Viral qPCR assay VZV (V0/V1, V2/V3), EC50; assay type: cell-based; conditions: Human alphaherpesvirus 3, MRC5, MRC5 cells, 10%; read-out: VZV Cell (EC50) MRC5 10%
Description: as §2, §3, §4
as §3, with “gene” for “gene and of the cellular control, PPIA (Thermo Fisher Assay ID=Hs04194521_s1),”, “in” for “in separate”, “Compound effects on viral” for “Viral”, “number” for “numbers were normalized by cellular control copy number, and compound effects”, “reported. • HCMV: Strain AD169 Street was assayed in MRC-5 cells and was used at 0.05-0.1 pfu/cell. The assays were performed in either growth media or in the same media with 50% fetal bovine serum. Primer-probe set was Thermo Fisher Assay ID=AIFATFK. • VZV: Strain Street was maintained as an infected cell stock in MRC-5 cells. It was assayed in MeWo or MRC5 cells and was used at 0.04-0.1 pfu/cell. […]” for “reported.”

[6] = Human alphaherpesvirus 1, Vero, VERO cells, read-out: HSV1 Cell (EC50) VERO 10%
[7] = Human alphaherpesvirus 1, MRC5, MRC5 cells, read-out: HSV1 Cell (EC50) MRC5 10%

| SMILES | IC50 [1] [nM] | IC50 [2] [nM] | EC50 [3] [nM] | EC50 [4, 6] [nM] | EC50 [5] [nM] | EC50 [4, 7] [nM] |
| --- | --- | --- | --- | --- | --- | --- |
| O=C(NCc1ccc(Cl)cc1)c1cc(O[C@H]2CCN3C(=O)OC[C@@H]3C2)cc(CO)n1 [Compound 152] | 201 | 134 | 1890 | 10700 | – | – |
| Cc1ncc(-c2cc(O[C@H]3CCN4C(=O)OC[C@@H]4C3)cc(C(=O)NCc3ccc(Cl)cc3)n2)s1 [Compound 102] | 199 | 117 | 8400 | 427 | – | – |
| N#Cc1cc(O[C@H]2CCN3C(=O)OC[C@@H]3C2)cc(C(=O)NCc2ccc(Cl)cc2)n1 [Compound 128] | 169 | – | 1780 | – | 5340 | 8330 |
| CN1CCN(c2cc(C(=O)NCc3ccc(C#N)cc3)ncc2C#N)[C@H](CF)C1 [Compound 174] | 36.5 | – | 472 | – | 1190 | 966 |
| O=C(NCc1ccc(Cl)cc1)c1cc(O[C@H]2CCN3C(=O)OC[C@@H]3C2)c(-c2cnc(CO)o2)cn1 [Compound 148b] | 1.89 | – | 102 | – | 220 | 116 |
| C[C@@H]1CN(C)CCN1c1cc(C(=O)NCc2ccc(C#N)cc2)ncc1C#N [Compound 172] | 128 | – | 419 | – | 4060 | 4190 |
| CN1CCC(N2CCC(C(=O)OCN(Cc3ccc(Cl)cc3)C(=O)c3cc(O[C@H]4CCN5C(=O)OC[C@@H]5C4)c(-c4cnn(C(F)F)c4)cn3)CC2)CC1 [Compound 184] | 894 | – | 519 | – | 314 | 173 |
| Cc1cc(-c2cnc(C(=O)NCc3ccc(Cl)cc3)cc2O[C@H]2CCN3C(=O)OC[C@@H]3C2)sn1 [Compound 23] | 1.16 | – | 102 | – | 59.6 | 25.7 |
| O=C(NCc1cc(F)c(Cl)c(F)c1)c1cc(O[C@H]2CCN3C(=O)OC[C@@H]3C2)c(-c2cnn(C(F)F)c2)cn1 [Compound 80] | 8.76 | – | 248 | – | 401 | 247 |
| O=C(NCc1ccc(Cl)c(F)c1F)c1cc(O[C@H]2CCN3C(=O)OC[C@@H]3C2)c(-c2cnn(C(F)F)c2)cn1 [Compound 92] | 10.3 | – | 227 | – | 339 | 200 |
| C#Cc1ccc(CNC(=O)c2cc(O[C@H]3CCN4C(=O)OC[C@@H]4C3)c(-c3cnn(C(F)F)c3)cn2)cc1 [Compound 88] | 184 | – | 616 | – | 1180 | 785 |
| Cn1cc(-c2cnc(C(=O)N3CCCC3c3ccc(Cl)cc3)cc2O[C@H]2CCN3C(=O)OC[C@@H]3C2)cn1 (some centres unmarked) [Compound 100] | 983 | 426 | – | – | – | – |

Continued, in another order:

| IC50 [1] [nM] | IC50 [2] [nM] | SMILES | EC50 [3] [nM] | EC50 [4, 6] [nM] | EC50 [5] [nM] | EC50 [4, 7] [nM] |
| --- | --- | --- | --- | --- | --- | --- |
| 2020 | 1300 | CC(=O)N1CCC(Oc2cc(C)nc(C(=O)NCc3ccc(Cl)cc3)c2)CC1 [Compound 101] | – | – | – | – |
| 83 | 35 | COC/C=C/c1cnc(C(=O)NCc2ccc(Cl)cc2)cc1OC1CCN(C(C)=O)CC1 [Compound 74] | 1440 | 280 | – | – |
| 56.6 | 18.4 | O=C(NCc1ccc(Cl)cc1)c1cc(O[C@H]2CCN3C(=O)OC[C@@H]3C2)c(CC2CCCO2)cn1 (mixture of isomers) [Compound 113] | 357 | 227 | – | – |
| 59.1 | 20.3 | O=C(NCc1ccc(Cl)cc1)c1cc(O[C@H]2CCN3C(=O)OC[C@@H]3C2)c(-c2ncco2)cn1 [Compound 4] | 292 | 210 | – | – |
| 48.5 | – | CC(=O)N1CCC(Oc2cc(C(=O)NCc3ccc(Cl)cc3)ncc2-c2cncs2)CC1 [Compound 51] | 369 | – | 170 | 164 |
| 66.2 | – | CC(=O)N1CCC(Oc2cc(C(=O)NCc3ccc(Cl)cc3)ncc2-c2nnc(C)o2)CC1 [Compound 153] | 478 | – | 913 | 636 |
| 172 | – | C[C@@H]1CN(c2cnc(C(=O)NCc3ccc(Cl)cc3)cc2O[C@H]2CCN3C(=O)OC[C@@H]3C2)C[C@H](C)[C@]1(C)O [Compound 124] | 1270 | – | 6050 | 2850 |
| 37.3 | – | CC(=O)N1CCC(Oc2cc(C(=O)NCc3ccc(Cl)cc3)ncc2-c2cn(C)cn2)CC1 [Compound 50] | 461 | – | 243 | 181 |
| 68.8 | – | CC(=O)N1CCC(Oc2cc(C(=O)NCc3ccc(Cl)cc3)ncc2-c2ccn(CS(C)(=O)=O)n2)CC1 [Compound 56] | 687 | – | 1430 | 847 |
